Laboratory results: US20240246979A1, “cGAS INHIBITORS” (Eli Lilly and Company, priority 2022, published 2024)

Key:
cGAS [1] = molecular target: T1, cGAS (Homo sapiens, UniProt Q8N884); assay: Cellular assay to measure cGAS activity (IFNb AlphaLISA in THP1 cells stimulated by RDG-Adenovirus-GFP); format: cell-based; set-up: host or cells: THP1 cells differentiated with PMA and stimulated with RDG-Adenovirus-GFP; conditions: PMA-differentiated THP1 cells, RDG-Adenovirus-GFP at 1000 MOI; inhibition of IFNb production as marker for cGAS activity
Experimental: Cellular assay to measure cGAS activity: Use THP1 cell line from ATCC to determine inhibition of cGAS activity by test compounds in human cells. Plate cells on 96-well plates at 0.2×10^6/well and differentiate with phorbol myristate acetate (PMA) at 37° C./5% CO2. After 24 hours, replace PMA containing media with media lacking PMA and further incubate overnight. Stimulate cells were then by RDG-Adenovirus-GFP (Vector Biolabs #1768) at 1000 MOI for 4 hours prior to the addition of test compounds. After overnight incubation, transfer 10 μL of the media from each well to a new plate for IFNb analysis as a marker for cGAS activity. Measure quantification of IFNb with an IFNb AlphaLISA Detection kit (Perkin Elmer AL3133F) by mixing the acceptor beads with the cell supernatant followed by the addition of the biotinylated antibody and donor beads. Measure the relative fluorescence signal produced from the interaction of the donor and acceptor beads by a PHERAStar AlphaLISA protocol and evaluate the inhibitory effect of a compound by plotting specific inhibition of IFNb production against log concentration of the test compound. Calculate IC50 values using a 4-parameter non-linear logistic equation (y=(S0+((SInf−S0)/(1+((qAC50/x)^nHill))))).

cGAS [2] = molecular target: T1, cGAS; assay: In vitro inhibition assay of cGAS activity (cGAMP production, RapidFire mass spectrometry); format: biochemical; set-up: Insert cDNA encoding full-length of human cGAS; His6; made in house; host or cells: E. coli BL21(DE3); conditions: 10 nM recombinant human cGAS, 60 nM 75-bp dsDNA, 50 μM ATP, 50 μM GTP, 3 hrs
Experimental: Expression and Purification of Recombinant cGAS Protein: Insert cDNA encoding full-length of human cGAS into a modified bacterial expression vector containing an in-frame His6-tag. Induce the E. coli strain BL21(DE3) harboring the plasmid with 1 mM IPTG (Isopropyl β-D-1-thiogalactopyranoside) at 18° C. overnight. Purify the His6-tagged cGAS protein over HISpur Ni-NTA resin in the presence of benzonase and RNase followed by Superdex 200 size exclusion chromatography with storage buffer (50 mM Tris-HCl pH 7.5, 300 mM NaCl, 1 mM DTT, 10% glycerol).
In vitro inhibition assay of cGAS activity: Add a 5 μL mixture containing 10 mM Tris-Cl pH 7.5, 50 mM NaCl, 5 mM MgCl2, 1 mM DTT, 0.01% Triton X-100, 60 nM 75-bp dsDNA, 50 μM ATP, 50 μM GTP, 10 nM of recombinant human cGAS, and serial dilutions of a test compound in DMSO to a 384-well plate and incubate at ambient temperature for 3 hrs. Quench the reaction by the addition of 100 μL of stop solution containing 0.1% formic acid and 0.1 μM internal standard (3′3′-difluoro cGAMP). Measure the amount of cGAMP produced by RapidFire 365 mass spectrometry and evaluate inhibitory effect of a compound by plotting percent specific inhibition of cGAMP production against log concentration of the test compound. Calculate IC50 values using a 4-parameter non-linear logistic equation (y=(S0+((Sinf−S0)/(1+((qAC50/x)^nHill))))).

T1 sequence (Q8N884 whole entry): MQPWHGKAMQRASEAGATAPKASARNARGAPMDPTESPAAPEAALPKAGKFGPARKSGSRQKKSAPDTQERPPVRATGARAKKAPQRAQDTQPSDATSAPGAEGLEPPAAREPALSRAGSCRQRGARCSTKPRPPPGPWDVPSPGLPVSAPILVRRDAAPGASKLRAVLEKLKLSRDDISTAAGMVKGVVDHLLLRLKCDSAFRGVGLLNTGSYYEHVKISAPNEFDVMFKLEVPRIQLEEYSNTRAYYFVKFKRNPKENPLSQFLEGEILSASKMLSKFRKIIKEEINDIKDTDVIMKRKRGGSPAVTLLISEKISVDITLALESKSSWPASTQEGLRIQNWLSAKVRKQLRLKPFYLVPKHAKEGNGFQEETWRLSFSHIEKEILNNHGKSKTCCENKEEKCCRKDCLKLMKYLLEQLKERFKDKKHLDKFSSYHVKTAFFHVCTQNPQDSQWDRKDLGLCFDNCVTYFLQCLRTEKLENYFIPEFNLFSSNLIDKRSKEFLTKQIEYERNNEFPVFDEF

Structure (SMILES)	IC50 (cGAS [1]) [nM]	IC50 (cGAS [2]) [nM]
CC1C(=O)NCCc2[nH]c3c(Cl)c(Cl)cc(N[C@H]4CCOC4)c3c21 (mixture of isomers) [Example 61, 7,8-Dichloro-1-methyl-10-(((S)-tetrahydrofuran-3-yl)amino)-3,4,5,6-tetrahydroazepino[4,5-b]indol-2(1H)-one]	1910	34.5
CC1C(=O)NCCc2[nH]c3c(Cl)c(Cl)cc(OC4CCOC4)c3c21 (mixture of isomers) [Example 86, 7,8-Dichloro-1-methyl-10-((tetrahydrofuran-3-yl)oxy)-3,4,5,6-tetrahydroazepino[4,5-b]indol-2(1H)-one]	3470	51.9
CC(O)CC1CNC(=O)Cc2c1n(C)c1c(Cl)c(Cl)cc(CC#N)c21 (mixture of isomers) [Example 128, 2-(7,8-Dichloro-5-(2-hydroxypropyl)-6-methyl-2-oxo-1,2,3,4,5,6-hexahydroazepino[4,5-b]indol-10-yl)acetonitrile]	217	13.6
CCOC(=O)CC1CNC(=O)Cc2c1[nH]c1c(Cl)c(Cl)cc(-c3cnn(C)n3)c21 (racemic) [Example 4, Ethyl 2-(7,8-dichloro-10-(2-methyl-2H-1,2,3-triazol-4-yl)-2-oxo-1,2,3,4,5,6-hexahydroazepino[4,5-b]indol-5-yl)acetate]	3570	26.2
Cn1ncc(-c2cc(Cl)c(Cl)c3[nH]c4c(c23)CC(=O)NCC4CC(=O)O)n1 (racemic) [Example 5, 2-(7,8-Dichloro-10-(2-methyl-2H-1,2,3-triazol-4-yl)-2-oxo-1,2,3,4,5,6-hexahydroazepino[4,5-b]indol-5-yl)acetic acid]	> 10000	5.12
Cn1ncc(-c2cc(Cl)c(Cl)c3[nH]c4c(c23)CC(=O)NCC4CCO)n1 (racemic) [Example 8, 7,8-Dichloro-5-(2-hydroxyethyl)-10-(2-methyl-2H-1,2,3-triazol-4-yl)-3,4,5,6-tetrahydroazepino[4,5-b]indol-2(1H)-one]	420	19
CC(=O)OCCCOc1cc(Cl)c(Cl)c2[nH]c3c(c12)C(C)C(=O)NCC3 (racemic) [Example 13, 3-((7,8-Dichloro-1-methyl-2-oxo-1,2,3,4,5,6-hexahydroazepino[4,5-b]indol-10-yl)oxy)propyl acetate]	582	9050
COCCNc1cc(Cl)c(Cl)c2[nH]c3c(c12)C(C)C(=O)NCC3 (racemic) [Example 46, 7,8-Dichloro-10-((2-methoxyethyl)amino)-1-methyl-3,4,5,6-tetrahydroazepino[4,5-b]indol-2(1H)-one]	885	22.6
CC1C(=O)NCCc2[nH]c3c(Cl)c(Cl)cc(NCCO)c3c21 (racemic) [Example 49, 7,8-Dichloro-10-((2-hydroxyethyl)amino)-1-methyl-3,4,5,6-tetrahydroazepino[4,5-b]indol-2(1H)-one]	390	15
CC1C(=O)NCCc2[nH]c3c(Cl)c(Cl)c(F)c(NCCO)c3c21 (racemic) [Example 52, 7,8-Dichloro-9-fluoro-10-((2-hydroxyethyl)amino)-1-methyl-3,4,5,6-tetrahydroazepino[4,5-b]indol-2(1H)-one]	2220	29.1
CC1C(=O)NCCc2[nH]c3c(Cl)c(Cl)cc(NC4COC4)c3c21 (racemic) [Example 60, 7,8-Dichloro-1-methyl-10-(oxetan-3-ylamino)-3,4,5,6-tetrahydroazepino[4,5-b]indol-2(1H)-one]	974	53.3
CC1C(=O)NCCc2[nH]c3c(Cl)c(Cl)cc(OCC(F)F)c3c21 (racemic) [Example 76, 7,8-Dichloro-10-(2,2-difluoroethoxy)-1-methyl-3,4,5,6-tetrahydroazepino[4,5-b]indol-2(1H)-one]	1470	38.6
CC1C(=O)NCCc2c1c1c(NCCO)cc(Cl)c(Cl)c1n2C(F)F (racemic) [Example 140, 7,8-Dichloro-6-(difluoromethyl)-10-((2-hydroxyethyl)amino)-1-methyl-3,4,5,6-tetrahydroazepino[4,5-b]indol-2(1H)-one]	1280	16.4
C[C@H]1CNC(=O)[C@H](C)c2c1[nH]c1c(Cl)c(Cl)cc(NC(=O)CO)c21 (racemic) [Example 158, trans-N-(7,8-dichloro-1,5-dimethyl-2-oxo-1,2,3,4,5,6-hexahydroazepino[4,5-b]indol-10-yl)-2-hydroxyacetamide]	341	19.7
COCCC1CNC(=O)Cc2c1[nH]c1c(Cl)c(Cl)cc(-c3cnn(C)n3)c21 (racemic) [Example 166, 7,8-Dichloro-5-(2-methoxyethyl)-10-(2-methyl-2H-1,2,3-triazol-4-yl)-3,4,5,6-tetrahydroazepino[4,5-b]indol-2(1H)-one]	1020	20.7
COCC[C@@H]1CNC(=O)[C@@H](C)c2c1[nH]c1c(Cl)c(Cl)cc(NCCO)c21 (racemic) [Example 169, trans-7,8-Dichloro-10-((2-hydroxyethyl)amino)-5-(2-methoxyethyl)-1-methyl-3,4,5,6-tetrahydroazepino[4,5-b]indol-2(1H)-one]	1130	26.2
COCC[C@@H]1CNC(=O)[C@H](C)c2c1[nH]c1c(Cl)c(Cl)cc(NCCO)c21 (racemic) [Example 170, cis 7,8-Dichloro-10-((2-hydroxyethyl)amino)-5-(2-methoxyethyl)-1-methyl-3,4,5,6-tetrahydroazepino[4,5-b]indol-2(1H)-one]	473	27.7
Cn1ncc(-c2cc(Cl)c(Cl)c3[nH]c4c(c23)CC(=O)NCC4CCC(F)F)n1 (racemic) [Example 177, 7,8-Dichloro-5-(3,3-difluoropropyl)-10-(2-methyl-2H-1,2,3-triazol-4-yl)-3,4,5,6-tetrahydroazepino[4,5-b]indol-2(1H)-one]	841	23.1
C[C@@H]1CNC(=O)[C@H](C)c2c1[nH]c1c(Cl)c(Cl)cc(NC(=O)CO)c21 (relative stereo) [Example 159, cis-N-(7,8-dichloro-1,5-dimethyl-2-oxo-1,2,3,4,5,6-hexahydroazepino[4,5-b]indol-10-yl)-2-hydroxyacetamide]	1390	60.6
Cn1ncc(-c2cc(Cl)c(Cl)c3[nH]c4c(c23)CC(=O)NC[C@H]4CCO)n1 (single isomer, unassigned) [Example 8A]	168	15.6
Cn1ncc(-c2cc(Cl)c(Cl)c3[nH]c4c(c23)CC(=O)NC[C@H]4CCO)n1 (single isomer, unassigned) [Example 8B]	3140	214
C[C@@H]1C(=O)NCCc2[nH]c3c(Cl)c(Cl)cc(NC(=O)CO)c3c21 (single isomer, unassigned) [Example 12A]	356	16.3
C[C@@H]1C(=O)NCCc2[nH]c3c(Cl)c(Cl)cc(NC(=O)CO)c3c21 (single isomer, unassigned) [Example 12B]	1700	748
C[C@@H]1C(=O)NCCc2[nH]c3c(Cl)c(Cl)cc(OCCCO)c3c21 (single isomer, unassigned) [Example 14A]	344	7.3
C[C@@H]1C(=O)NCCc2[nH]c3c(Cl)c(Cl)cc(OCCCO)c3c21 (single isomer, unassigned) [Example 14B]	4450	302
Cn1ccc(-c2cc(Cl)c(Cl)c3[nH]c4c(c23)CC(=O)NCC4)n1 [Example 3, 7,8-Dichloro-10-(1-methyl-1H-pyrazol-3-yl)-3,4,5,6-tetrahydroazepino[4,5-b]indol-2(1H)-one]	–	111
Cn1c2c(c3c(OCC#N)cc(Cl)c(Cl)c31)CC(=O)NCC2 [Example 21, 2-((7,8-Dichloro-6-methyl-2-oxo-1,2,3,4,5,6-hexahydroazepino[4,5-b]indol-10-yl)oxy)acetonitrile]	–	141
